Measured values as given in DBAASP.
≈ marks a conversion by molar mass, not a printed value.

What was measured:
Assay in all cases: ≥ marks a high value that may be exact or a test limit, other limits are often not marked, values filed in µg/mL are converted to µM
[1] = test system: Escherichia coli ATCC 25922
[2] = test system: Staphylococcus aureus ATCC 25923
[3] = test system: Candida albicans ATCC 20032
[4] = test system: Bacillus subtilis ATCC 6633
[5] = test system: Staphylococcus aureus NCTC 8325
[6] = test system: Klebsiella pneumoniae KK3 9904
[7] = test system: Staphylococcus epidermidis RP62A
[8] = test system: Candida albicans ATCC 90028
[9] = test system: Enterococcus faecalis ATCC 29212
[10] = test system: Pseudomonas aeruginosa ATCC 27853
[11] = test system: Proteus mirabilis ATCC 25933
Staphylococcus aureus = test system: Staphylococcus aureus
[12] = test system: Enterobacter cloacae NHTCC 53001
Acinetobacter baumannii = test system: Acinetobacter baumannii
[13] = test system: Staphylococcus aureus ATCC 29213
[14] = test system: Escherichia coli ATCC 25726
[15] = test system: Staphylococcus epidermidis RP62A/1
[16] = test system: Stenotrophomonas maltophilia
[17] = test system: Klebsiella pneumoniae ATCC 700603
[18] = test system: Corynebacterium xerosis C875
Escherichia coli UB1005 = test system: Escherichia coli UB1005
Escherichia coli DC2 = test system: Escherichia coli DC2
[19] = test system: Staphylococcus epidermidis C621
[20] = test system: Micrococcus luteus ATCC 10240
[21] = test system: Staphylococcus aureus ATCC 6538P
[22] = test system: Staphylococcus epidermidis ATCC 12228
[23] = test system: Salmonella enterica subsp. enterica serovar Typhimurium ATCC 14028
[24] = test system: Shigella dysenteriae ATCC 9752
[25] = test system: Klebsiella pneumoniae ATCC 10031

SMILES | MIC [1] | MIC [2] | MIC [3] | MIC [4] | MIC [7] | MIC [8] | MIC [10] | MIC [11] | other results
CC[C@H](C)[C@@H]1NC(=O)[C@H](CO)NC(=O)[C@H](CCCCN)NC(=O)[C@H]([C@@H](C)O)NC(=O)[C@H](Cc2c[nH]c3ccccc23)NC(=O)[C@@H](NC(=O)CNC(=O)[C@H](CCCN=C(N)N)NC(=O)[C@H](CC(C)C)NC(=O)[C@H](C)NC(=O)[C@H](C)N)CSSC[C@@H](C(=O)N2CCC[C@H]2C(=O)NCC(=O)N[C@@H](CCCCN)C(=O)N[C@@H](CCCN=C(N)N)C(=O)O)NC(=O)[C@@H]2CCCN2C(=O)[C@H](CCCCN)NC(=O)[C@@H]2CCCN2C(=O)[C@@H]2CCCN2C1=O [AALRGCWTKSIPPKPCPGKR] | 46.2 µM (≈ 100 µg/mL) | 5.8 µM (≈ 12.6 µg/mL) | ≥ 46.2 µM | ≥ 46.2 µM |  |  |  |  | 
CC[C@H](C)[C@H](NC(=O)[C@H](Cc1cnc[nH]1)NC(=O)CNC(=O)[C@H](C)NC(=O)[C@@H](NC(=O)[C@@H](NC(=O)[C@H](CCCCN)NC(=O)[C@@H](NC(=O)[C@H](Cc1ccccc1)NC(=O)[C@H](C)NC(=O)[C@H](CCCCN)NC(=O)[C@H](C)NC(=O)[C@H](C)NC(=O)CNC(=O)[C@H](CCCCN)NC(=O)[C@H](CC(C)C)NC(=O)[C@@H](NC(=O)[C@H](CC(=O)O)NC(=O)[C@H](CCCN=C(N)N)NC(=O)[C@H](Cc1ccccc1)NC(=O)CN)C(C)C)C(C)C)[C@@H](C)O)C(C)C)C(=O)N[C@@H](C)C(=O)N[C@@H](CC(N)=O)C(N)=O [GFRDVLKGAAKAFVKTVAGHIAN] | 3 µM (≈ 7.11 µg/mL) |  |  |  | ≥ 50 µM | ≥ 100 µM | 25 µM (≈ 59.2 µg/mL) | ≥ 100 µM | MIC [5]: ≥ 100 µM; MIC [6]: 6 µM (≈ 14.2 µg/mL); MIC [9]: > 100 µM; MIC (Staphylococcus aureus): 32 µM (≈ 75.8 µg/mL); MIC [12]: 6 µM (≈ 14.2 µg/mL)
CC[C@H](C)[C@H](NC(=O)CN)C(=O)NCC(=O)NCC(=O)N[C@H](C(=O)N[C@@H](CC(C)C)C(=O)N[C@@H](CC(C)C)C(=O)N[C@@H](CO)C(=O)N[C@@H](C)C(=O)NCC(=O)N[C@@H](CCCCN)C(=O)N[C@@H](C)C(=O)N[C@@H](C)C(=O)N[C@@H](CC(C)C)C(=O)N[C@@H](CCCCN)C(=O)NCC(=O)N[C@@H](CC(C)C)C(=O)N[C@H](C(=O)N[C@@H](CCCCN)C(=O)N[C@H](C(=O)N[C@@H](CC(C)C)C(=O)N[C@@H](C)C(=O)N[C@@H](CCC(=O)O)C(=O)N[C@@H](CCCCN)C(=O)N[C@@H](Cc1ccc(O)cc1)C(=O)N[C@@H](C)C(=O)N[C@@H](CC(N)=O)C(N)=O)C(C)C)[C@@H](C)O)C(C)C [GIGGVLLSAGKAALKGLTKVLAEKYAN] | > 37.8 µM | 7.11 µM (≈ 18.8 µg/mL) | ≥ 37.8 µM | ≥ 37.8 µM |  |  |  |  | 
CC[C@H](C)[C@H](NC(=O)CN)C(=O)N[C@@H](CC(C)C)C(=O)N[C@@H](CO)C(=O)N[C@@H](CO)C(=O)N[C@@H](Cc1ccccc1)C(=O)N[C@@H](CCCCN)C(=O)NCC(=O)N[C@H](C(=O)N[C@@H](C)C(=O)N[C@@H](CCCCN)C(=O)NCC(=O)N[C@H](C(=O)N[C@@H](C)C(=O)N[C@@H](CCCCN)C(=O)N[C@@H](CC(N)=O)C(=O)N[C@@H](CC(C)C)C(=O)N[C@@H](C)C(=O)NCC(=O)N[C@@H](CCCCN)C(=O)N[C@@H](CC(C)C)C(=O)N[C@@H](CC(C)C)C(=O)N[C@@H](CC(=O)O)C(=O)N[C@@H](CCC(=O)O)C(=O)N[C@@H](CC(C)C)C(=O)N[C@@H](CCCCN)C(=O)N[C@H]1CSSC[C@@H](C(=O)O)NC(=O)CNC(=O)[C@H]([C@@H](C)O)NC(=O)[C@H]([C@@H](C)CC)NC(=O)[C@H](CCCCN)NC1=O)C(C)C)C(C)C [GILSSFKGVAKGVAKNLAGKLLDELKCKITGC] | 5 µM (≈ 16.3 µg/mL) |  |  |  | 20 µM (≈ 65.2 µg/mL) | ≥ 40 µM | 5 µM (≈ 16.3 µg/mL) | ≥ 40 µM | MIC [5]: 20 µM (≈ 65.2 µg/mL); MIC [6]: 10 µM (≈ 32.6 µg/mL); MIC [9]: > 40 µM; MIC [12]: 5 µM (≈ 16.3 µg/mL)
CC[C@H](C)[C@H](N)C(=O)N[C@@H](CCCCN)C(=O)N[C@@H](CC(C)C)C(=O)N[C@@H](CO)C(=O)N[C@@H](CCCCN)C(=O)N[C@@H](CCC(=O)O)C(=O)N[C@H](C(=O)N[C@@H](CCCCN)C(=O)N[C@@H](CC(=O)O)C(=O)N[C@@H](CC(N)=O)C(=O)N[C@@H](CC(C)C)C(=O)N[C@@H](CCCCN)C(=O)N[C@@H](CCCCN)C(=O)N[C@H](C(=O)N[C@@H](CC(C)C)C(=O)N[C@@H](CCCCN)C(=O)NCC(=O)N[C@@H](C)C(=O)N[C@H](C(=O)N[C@@H](CCCCN)C(=O)NCC(=O)N[C@@H](C)C(=O)N[C@H](C(=O)N[C@@H](C)C(=O)N[C@H](C(=O)N[C@@H](C)C(=O)N[C@@H](CCCCN)C(=O)N[C@@H](CCSC)C(=O)N[C@H](C(N)=O)C(C)C)C(C)C)[C@@H](C)CC)[C@@H](C)CC)C(C)C)[C@@H](C)O [IKLSKETKDNLKKVLKGAIKGAIAVAKMV] |  | 6.25 µM (≈ 19.3 µg/mL) |  |  | 1.6 µM (≈ 4.95 µg/mL) | ≥ 50 µM | 25 µM (≈ 77.4 µg/mL) | ≥ 100 µM | MIC (Acinetobacter baumannii): 6.25 µM (≈ 19.3 µg/mL); MIC [13]: 6.25 µM (≈ 19.3 µg/mL); MIC [14]: 12.5 µM (≈ 38.7 µg/mL); MIC [15]: 1.6 µM (≈ 4.95 µg/mL); MIC [16]: 3.1 µM (≈ 9.59 µg/mL); MIC [17]: 12.5 µM (≈ 38.7 µg/mL)
C[C@H](NC(=O)[C@H](C)NC(=O)[C@H](C)NC(=O)[C@H](Cc1ccc(O)cc1)NC(=O)[C@H](C)NC(=O)[C@H](C)NC(=O)[C@H](C)NC(=O)[C@H](CCCCN)NC(=O)[C@@H](N)CCCCN)C(=O)N[C@@H](C)C(=O)N[C@@H](C)C(=O)N[C@@H](Cc1ccc(O)cc1)C(=O)N[C@@H](C)C(=O)N[C@@H](C)C(=O)N[C@@H](Cc1c[nH]c2ccccc12)C(=O)N[C@@H](C)C(=O)N[C@@H](C)C(=O)N[C@@H](Cc1ccc(O)cc1)C(=O)N[C@@H](C)C(=O)N[C@@H](C)C(=O)N[C@@H](C)C(=O)N[C@@H](CCCCN)C(=O)N[C@@H](CCCCN)C(=O)N[C@@H](CCCCN)C(=O)N[C@@H](CCCCN)C(N)=O [KKAAAYAAAAAYAAWAAYAAAKKKK] |  |  |  |  |  |  |  |  | MIC [18]: 0.25 µM (≈ 0.632 µg/mL); MIC (Escherichia coli UB1005): ≥ 32 µM; MIC (Escherichia coli DC2): 16 µM (≈ 40.4 µg/mL); MIC [19]: 8 µM (≈ 20.2 µg/mL)
CC(C)C[C@H](NC(=O)[C@H](Cc1c[nH]c2ccccc12)NC(=O)[C@H](CCCCN)NC(=O)[C@H](CC(C)C)NC(=O)[C@@H](N)CC(C)C)C(=O)N[C@@H](CCCCN)C(=O)N[C@@H](CCCCN)C(N)=O [LLKWLKK] | > 215 µM |  |  | ≥ 108 µM |  |  | > 215 µM |  | MIC [20]: 26.9 µM (≈ 25 µg/mL); MIC [21]: ≥ 215 µM; MIC [22]: > 215 µM; MIC [23]: > 215 µM; MIC [24]: ≥ 108 µM; MIC [25]: ≥ 215 µM
CC[C@H](C)[C@H](NC(=O)[C@H](CCCCN)NC(=O)[C@H](C)NC(=O)CNC(=O)[C@@H](NC(=O)[C@@H](N)CO)[C@@H](C)CC)C(=O)N[C@@H](CC(C)C)C(=O)NCC(=O)NCC(=O)N[C@H](C(=O)N[C@@H](CCCCN)C(=O)N[C@H](C(=O)N[C@@H](Cc1ccccc1)C(=O)N[C@@H](Cc1ccccc1)C(=O)N[C@@H](CCCCN)C(=O)NCC(=O)N[C@@H](C)C(=O)N[C@@H](CC(C)C)C(=O)N[C@@H](CCCCN)C(=O)N[C@@H](CCC(=O)O)C(=O)N[C@@H](CC(C)C)C(=O)N[C@@H](C)C(=O)N[C@@H](Cc1ccccc1)C(=O)N[C@H](C(=O)N[C@@H](Cc1ccc(O)cc1)C(=O)N[C@@H](CC(C)C)C(=O)N[C@@H](CCC(N)=O)C(N)=O)[C@@H](C)O)[C@@H](C)O)C(C)C [SIGAKILGGVKTFFKGALKELAFTYLQ] | > 34.5 µM | 12.9 µM (≈ 37.5 µg/mL) | ≥ 34.5 µM | ≥ 34.5 µM |  |  |  |  | 
